From EP1770089A1, “Pyranodibenzofuran derivatives with antifungal and antibacterial activity” (priority 2005, dated 2007)
≈ marks a conversion by molar mass, not a printed value.

How the values were obtained:
[1] = tested on: M. tuberculosis INH resistant (2003/1762); test: microbe, parasite or virus in culture; format: cell-based; conditions: Mycobacterium tuberculosis
[2] = tested on: M. tuberculosis RIF resistant (2004/0499); test: microbe, parasite or virus in culture; format: cell-based; conditions: Mycobacterium tuberculosis

Question: With `CC1(C)C=Cc2c(ccc3oc4ccccc4c23)O1` [Compound 9, 3,3-dimethyl-3H-benzofuro[3,2-f][1]benzopyran] as the compound, how does the MIC99 [1] read?
Answer: 5 µg/mL (≈ 20 µM)

Question: What about the MIC99 [2] of the same compound?
Answer: 5 µg/mL (≈ 20 µM)

Question: `CC1(C)CCc2c(ccc3oc4ccccc4c23)O1` [Compound 16, 1,2-dihydro-3,3-dimethyl-3H-benzofuro[3,2-f][1]benzopyran] was tested. Which MIC99 [1] did it give?
Answer: 1 µg/mL (≈ 3.96 µM)

Question: What about the MIC99 [2] of the same compound?
Answer: 1 µg/mL (≈ 3.96 µM)

Question: With `NNC(=O)c1ccncc1` [INH, isoniazid, reference compound] as the compound, how does the MIC99 [1] read?
Answer: 5 µg/mL (≈ 36.5 µM)

Question: What about the MIC99 [2] of the same compound?
Answer: 0.1 µg/mL (≈ 0.729 µM)
